Assay results as given in US9993001B2, “Herbicidal composition” (ISHIHARA SANGYO KAISHA, LTD., priority 2014, dated 2018).

Key:
Assay type in all cases: in vivo
[1] = system: barnyardgrass (Echinochloa crus-qalli L.); assay: Test Example 5: adzuki bean field, soil treatment, metobromuron + fluazifop-P-butyl; conditions: Echinochloa, soil, read-out: Growth inhibition rate of barnyardgrass (%) Measured value
From the text: (§1) When the herbicidal activity in a case where two active ingredients are combined, is larger than the simple sum of the respective herbicidal activities of the two active ingredients (the expected activity), it is called a synergistic effect. The activity expected by the combination of two active ingredients can be calculated as follows (Colby S. R., “Weed”, vol. 15, p. 20-22, 1967). E=α+β−(α×β[…]) where α: growth inhibition rate when treated with x (g/ha) of herbicide X, • β: growth inhibition rate when treated with y (g/ha) of herbicide Y, • E: growth inhibition rate expected when treated with x (g/ha) of herbicide X and y (g/ha) of herbicide Y.
(§2) On the 19th day after treatment, the state of growth of barnyardgrass was visually observed and evaluated in accordance with the following standards. The growth inhibition rate (%) [measured value] and the growth inhibition rate (%) [calculated value] calculated by the Colby's method, are shown in Table 2.
(§3) Growth inhibition rate (%)=inhibition rate) (%) of 0 (equivalent to the non-treated area) to 100 (complete kill) […]
On the 39th day after treatment, the state of growth of barnyardgrass (Echinochloa crus-qalli L.) which occurred naturally, was visually observed and evaluated in the same manner as in Test Example 1.

[2] = system: barnyardgrass (Echinochloa crus-galli L.); assay: Test Example 15: pot, soil treatment, metobromuron + chlorpropham; conditions: soil, read-out: Growth inhibition rate of barnyardgrass (%) Measured value
From the text: as §1, §2
(§4) Growth inhibition rate (%)=inhibition rate) (%) of 0 (equivalent to the non-treated area) to 100 (complete kill)
(§5) Soil was put into a 1/300,000 ha pot, and seeds of barnyardgrass (Echinochloa crus-galli L.) were sown. […]
(§6) On the 21st day after treatment, the state of growth of barnyardgrass was visually observed and evaluated in the same manner as in Test Example 1.

[3] = system: giant foxtail (Setaria faberi Herrm.); assay: Test Example 16: pot, soil treatment, metobromuron + chlorpropham; conditions: soil, read-out: Growth inhibition rate of giant foxtail (%) Measured value
From the text: as §1, §2, §4
Soil was put into a 1/300,000 ha pot, and seeds of barnyardgrass (Echinochloa crus-galli L.) were sown. On the day after seeding, predetermined amounts of SC containing metobromuron as active ingredient (same as in Test Example 1) and EC containing chlorpropham as active ingredient (same as in Test Example 1) were diluted with water corresponding to 1,000 L per hectare and applied for soil treatment.
as §6
The test was carried out in the same manner as in Test Example 15 except that barnyardgrass (Echinochloa crus-galli L.) was changed to giant foxtail (Setaria faberi Herrm.), to obtain the results as shown in Table 17.

[4] = system: common purslane (Portulaca oleracea L.); assay: Test Example 12: corn field, soil treatment, metobromuron + nicosulfuron; conditions: soil, read-out: Growth inhibition rate of common purslane (%) Measured value
From the text: as §1, §2, §3
On the 30th day after treatment, the state of growth of common purslane (Portulaca oleracea L.) which occurred naturally, was visually observed and evaluated in the same manner as in Test Example 1.

[5] = system: black nightshade (Solanum nigrum L.); assay: Test Example 27: pot, soil treatment, metobromuron + flufenacet; conditions: soil, read-out: Growth inhibition rate of black nightshade (%) Measured value
From the text: as §1, §2, §4
Soil was put into a 1/300,000 ha pot, and seeds of black nightshade (Solanum nigrum L.) were sown. On the day after seeding, predetermined amounts of SC containing metobromuron as active ingredient (same as in Test Example 1) and EC containing prosulfocarb as active ingredient (trade name: BOXER NYUZAI, manufactured by Syngenta) were diluted with water corresponding to 1,000 L per hectare and applied for soil treatment.
On the 21st day after treatment, the state of growth of black nightshade was visually observed and evaluated in the same manner as in Test Example 1.
The test was carried out in the same manner as in Test Example 26 except that EC containing prosulfocarb as active ingredient was changed to SC containing flufenacet as active ingredient (trade name: Cadou, manufactured by Bayer CropScience), to obtain the results as shown in Table 28.

[6] = system: Nepalese Smartweed (Persicaria nepalensis (Meisn.) H. Gross); assay: Test Example 6: adzuki bean field, soil treatment, metobromuron + S-metolachlor; conditions: soil, read-out: Growth inhibition rate of Nepalese Smartweed (%) Measured value
From the text: as §1, §2, §4
In an adzuki bean agricultural field (9.6 square meters per one test section), predetermined amounts of SC containing metobromuron as active ingredient (same as in Test Example 1) and EC containing S-metolachlor as active ingredient (same as in Test Example 2) were diluted with water corresponding to 1,000 L per hectare and applied for soil treatment, prior to germination of adzuki bean and weeds.
On the 39th day after treatment, the state of growth of Nepalese Smartweed (Persicaria nepalensis (Meisn.) H. Gross) which occurred naturally, was visually observed and evaluated in the same manner as in Test Example 1.

[7] = system: polygonaceae weeds; assay: Test Example 10: corn field, soil treatment, metobromuron + pendimethalin; conditions: soil, read-out: Growth inhibition rate of Polygonaceae weeds (%) Measured value
From the text: as §1, §2, §3
On the 49th day after treatment, the state of growth of polygonaceae weeds which occurred naturally, was visually observed and evaluated in the same manner as in Test Example 1, The results are shown in Table 11.

[8] = system: barnyardgrass (Echinochloa crus-galli L.); assay: Test Example 18: pot, soil treatment, metobromuron + chlorpropham; conditions: soil, read-out: Growth inhibition rate of barnyardgrass (%) Measured value
From the text: as §1, §2, §4, §5
On the 26th day after treatment, the state of growth of barnyardgrass was visually observed and evaluated in the same manner as in Test Example 1.

[9] = system: large crabgrass (Digitaria sanquinalis L.); assay: Test Example 28: pot, soil treatment, metobromuron + pendimethalin; conditions: soil, read-out: Growth inhibition rate of large crabgrass (%) Measured value
From the text: as §1, §2, §4
Soil was put into a 1/300,000 ha pot, and seeds of large crabgrass (Digitaria sanquinalis L.) were sown. On the day after seeding, predetermined amounts of SC containing metobromuron as active ingredient (same as in Test Example 1) and EC containing pendimethalin as active ingredient (same as in Test Example 10) were diluted with water corresponding to 1,000 L per hectare and applied for soil treatment.
On the 27th day after treatment, the state of growth of large crabgrass was visually observed and evaluated in the same manner as in Test Example 1.

**Q.** Which results are given for `CON(C)C(=O)Nc1ccc(Br)cc1` [Metobromuron, 3-(4-bromophenyl)-1-methoxy-1-methylurea]?
**A.** inhibition at 1000 g/ha [1]: 53%; inhibition at 1500 g/ha [2]: 72%; inhibition at 1000 g/ha [3]: 78%; inhibition at 1000 g/ha [4]: 85%; inhibition at 250 g/ha [5]: 25%; inhibition at 375 g/ha [5]: 50%; inhibition at 562.5 g/ha [5]: 68%; inhibition at 1000 g/ha [6]: 35%; inhibition at 1500 g/ha [6]: 40%; inhibition at 1000 g/ha [7]: 30%; inhibition at 188 g/ha [8]: 0%; inhibition at 62.5 g/ha [9]: 0%; inhibition at 125 g/ha [9]: 15%; inhibition at 250 g/ha [9]: 35%
